Reference: the NIST ThermoML archive (doi:10.1016/j.jct.2008.12.018)
Numbers after ± are expanded uncertainties.

Experiment: activity coefficient (dimensionless); of the first substance listed, at infinite dilution; xn = mol fraction of the nth substance listed
Conditions: Liquid, Chromatography, x1 = 0

SMILES | activity coefficient (298.15 K) | activity coefficient (308.15 K) | activity coefficient (318.15 K) | activity coefficient (328.15 K) | activity coefficient (338.15 K) | activity coefficient (348.15 K) | activity coefficient (358.15 K) | activity coefficient (368.15 K)
Cc1ccccc1C [1,2-dimethylbenzene] + CCCCn1cc[n+](C)c1.N#C[S-] | 4.58 ± 0.31 | 4.64 ± 0.32 | 4.71 ± 0.32 | 4.69 ± 0.32 | 4.71 ± 0.32 | 4.75 ± 0.32 | 4.78 ± 0.33 | 4.81 ± 0.33
Cc1cccc(C)c1 [1,3-dimethylbenzene] + CCCCn1cc[n+](C)c1.N#C[S-] | 5.92 ± 0.4 | 5.91 ± 0.4 | 5.98 ± 0.41 | 5.96 ± 0.41 | 5.96 ± 0.41 | 5.97 ± 0.41 | 5.99 ± 0.41 | 5.96 ± 0.41
Cc1ccc(C)cc1 [1,4-dimethylbenzene] + CCCCn1cc[n+](C)c1.N#C[S-] | 5.51 ± 0.38 | 5.54 ± 0.38 | 5.59 ± 0.38 | 5.6 ± 0.38 | 5.63 ± 0.38 | 5.68 ± 0.39 | 5.72 ± 0.39 | 5.75 ± 0.39
C=CCCCCC [1-heptene] + CCCCn1cc[n+](C)c1.N#C[S-] | 81.1 ± 5.6 | 73.7 ± 5.1 | 68.5 ± 4.7 | 62.3 ± 4.3 | 58 ± 4 | 54.8 ± 3.8 | 52.4 ± 3.6 | –
C#CCCCCC [1-heptyne] + CCCCn1cc[n+](C)c1.N#C[S-] | 9.88 ± 0.67 | 9.92 ± 0.68 | 10.1 ± 0.69 | 10.2 ± 0.7 | 10.2 ± 0.7 | 10.3 ± 0.7 | 10.4 ± 0.71 | –
C#CCCCC [1-hexyne] + CCCCn1cc[n+](C)c1.N#C[S-] | 6.42 ± 0.44 | 6.45 ± 0.44 | 6.59 ± 0.45 | 6.65 ± 0.45 | 6.76 ± 0.46 | 6.87 ± 0.47 | 6.95 ± 0.47 | –
C#CCCCCCC [1-octyne] + CCCCn1cc[n+](C)c1.N#C[S-] | 15.2 ± 1 | 15.1 ± 1 | 15.4 ± 1.1 | 15.3 ± 1 | 15.3 ± 1 | 15.3 ± 1 | 15.3 ± 1 | –
C=CCCC [1-pentene] + CCCCn1cc[n+](C)c1.N#C[S-] | 52.3 ± 3.6 | 46.4 ± 3.2 | 41.5 ± 2.8 | 35.4 ± 2.4 | 32.6 ± 2.2 | 30.6 ± 2.1 | 27.6 ± 1.9 | –
